Measurements reported in PubChem BioAssay AID248 (DTP/NCI, 2004).
Several values for one entry are separate records, joined by “and”; a condition that tells them apart may be missing. Equal values may be shown once. Inconclusive results and toxic doses are left out. Cut-off read from the data, not from the text of the source: active = T/C of 150% or more; inactive = T/C below 125%.

System: L1210 leukemia ip in BDF1 mice, survival T/C
Experiment: NCI In Vivo Anticancer Drug Screen. Data for tumor model L1210 Leukemia (intraperitoneal) in B6D2F1 (BDF1) mice
Conditions: endpoint: mean survival time, higher = longer survival
Outline: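 In this screen, tumor-bearing mice given compound are compared to those given vehicle, and their survival values are reported as a treated-to-control quotient.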

[1] = dose: 12.5 mg/kg/injection, schedule: Q01DX009 (ip), vehicle: saline with Tween-80
[2] = dose: 25.0 mg/kg/injection, schedule: Q01DX009 (ip), vehicle: saline with Tween-80
[3] = dose: 50.0 mg/kg/injection, schedule: Q01DX009 (ip), vehicle: saline with Tween-80
[4] = dose: 100.0 mg/kg/injection, schedule: Q04DX003 (ip), vehicle: Klucel (hydroxypropylcellulose) (HPC)
[5] = dose: 200.0 mg/kg/injection, schedule: Q04DX003 (ip), vehicle: Klucel (hydroxypropylcellulose) (HPC)
[6] = dose: 400.0 mg/kg/injection, schedule: Q04DX003 (ip), vehicle: Klucel (hydroxypropylcellulose) (HPC)
[7] = dose: 100.0 mg/kg/injection, schedule: Q01DX009 (ip), vehicle: saline with Tween-80
[8] = dose: 200.0 mg/kg/injection, schedule: Q01DX009 (ip), vehicle: saline with Tween-80
[9] = dose: 100.0 mg/kg/injection, schedule: Q04DX002 (ip), vehicle: saline with Tween-80
[10] = dose: 200.0 mg/kg/injection, schedule: Q04DX002 (ip), vehicle: saline with Tween-80
[11] = dose: 400.0 mg/kg/injection, schedule: Q04DX002 (ip), vehicle: saline with Tween-80
[12] = dose: 100.0 mg/kg/injection, schedule: Q04DX003 (ip), vehicle: saline with Tween-80
[13] = dose: 200.0 mg/kg/injection, schedule: Q04DX003 (ip), vehicle: saline with Tween-80
[14] = dose: 400.0 mg/kg/injection, schedule: Q04DX003 (ip), vehicle: saline with Tween-80
[15] = dose: 100.0 mg/kg/injection, schedule: Q04DX002 (ip), vehicle: Klucel (hydroxypropylcellulose) (HPC)
[16] = dose: 200.0 mg/kg/injection, schedule: Q04DX002 (ip), vehicle: Klucel (hydroxypropylcellulose) (HPC)
[17] = dose: 400.0 mg/kg/injection, schedule: Q04DX002 (ip), vehicle: Klucel (hydroxypropylcellulose) (HPC)

Measured: T/C

c1ccc(CSn2cnc3nc4ccccc4c-3c2)cc1
inactive: dose: 100.0 mg/kg/injection, schedule: Q04DX003 (ip), vehicle: gum acacia 91 % of control | dose: 200.0 mg/kg/injection, schedule: Q04DX003 (ip), vehicle: gum acacia 91 % of control | dose: 400.0 mg/kg/injection, schedule: Q04DX003 (ip), vehicle: gum acacia 91 % of control

Oc1ccccc1C=NCCN=Cc1ccccc1O.[CH3][Sn]([CH3])([Cl])[Cl]
inactive: [1] 102 % of control | [2] 110 % of control | [3] 107 % of control

c1ccn2nnnc2c1
inactive: dose: 100.0 mg/kg/injection, schedule: Q01DX001 (ip), vehicle: other 97 % of control | dose: 200.0 mg/kg/injection, schedule: Q01DX001 (ip), vehicle: other 94 % of control

c1ccc2cc(-c3csc4ccccc34)ccc2c1
inactive: dose: 100.0 mg/kg/injection, schedule: Q01DX009 (ip), vehicle: Klucel (hydroxypropylcellulose) (HPC) 104 % of control | [4] 110 % of control | dose: 200.0 mg/kg/injection, schedule: Q01DX009 (ip), vehicle: Klucel (hydroxypropylcellulose) (HPC) 94 % of control | [5] 97 % of control | dose: 400.0 mg/kg/injection, schedule: Q01DX009 (ip), vehicle: Klucel (hydroxypropylcellulose) (HPC) 103 % of control | [6] 100 % of control

C1CSC(SCCSC2=NCCS2)=N1
inactive: dose: 62.5 mg/kg/injection, schedule: Q01DX009 (ip), vehicle: carboxymethylcellulose (CMC) 89 % of control | dose: 125.0 mg/kg/injection, schedule: Q01DX009 (ip), vehicle: carboxymethylcellulose (CMC) 100 % of control | dose: 250.0 mg/kg/injection, schedule: Q01DX009 (ip), vehicle: carboxymethylcellulose (CMC) 96 % of control

NC(CSS(=O)(=O)O)=NCCSc1ccc(Cl)cc1
inactive: dose: 6.25 mg/kg/injection, schedule: Q01DX009 (ip), vehicle: Klucel (hydroxypropylcellulose) (HPC) 95 % of control | dose: 12.5 mg/kg/injection, schedule: Q01DX009 (ip), vehicle: Klucel (hydroxypropylcellulose) (HPC) 104 % of control | dose: 12.5 mg/kg/injection, schedule: Q04DX002 (ip), vehicle: Klucel (hydroxypropylcellulose) (HPC) 100 % of control | dose: 25.0 mg/kg/injection, schedule: Q01DX009 (ip), vehicle: Klucel (hydroxypropylcellulose) (HPC) 107 % of control | dose: 25.0 mg/kg/injection, schedule: Q04DX002 (ip), vehicle: Klucel (hydroxypropylcellulose) (HPC) 100 % of control

CC(C)N(CC#N)C(C)C
inactive: dose: 0.25 mg/kg/injection, schedule: Q01DX009 (ip), vehicle: saline with Tween-80 93 % of control | dose: 0.5 mg/kg/injection, schedule: Q01DX009 (ip), vehicle: saline with Tween-80 95 % of control

CC(OC(=O)c1ccccc1O)c1ccccc1 (centres undefined)
inactive: dose: 100.0 mg/kg/injection, schedule: Q04DX003 (ip), vehicle: saline 96 % of control | dose: 200.0 mg/kg/injection, schedule: Q04DX003 (ip), vehicle: saline 96 % of control | dose: 400.0 mg/kg/injection, schedule: Q04DX003 (ip), vehicle: saline 100 % of control

Cc1noc(NC(=O)Nc2ccc(Cl)cc2Cl)c1C
inactive: [1] 86 % of control | [2] 89 % of control | [3] 91 % of control | [7] 91 % of control | [8] 87 % of control

O=C(O)C(Cl)C(C(=O)O)c1ccccc1 (centres undefined)
inactive: [9] 101 % of control | [10] 93 % of control | [11] 93 % of control

O=C(O)C1=CCC=CC1
inactive: [12] 98 % of control | [13] 109 % of control | [14] 106 % of control

COC1C(COC(=O)c2ccccc2)OC2OC(C)(C)OC21 (centres undefined)
inactive: dose: 50.0 mg/kg/injection, schedule: Q01DX001 (ip), vehicle: carboxymethylcellulose (CMC) 98 % of control | dose: 100.0 mg/kg/injection, schedule: Q01DX001 (ip), vehicle: carboxymethylcellulose (CMC) 98 % of control | dose: 200.0 mg/kg/injection, schedule: Q01DX001 (ip), vehicle: carboxymethylcellulose (CMC) 93 % of control | dose: 400.0 mg/kg/injection, schedule: Q01DX001 (ip), vehicle: carboxymethylcellulose (CMC) 109 % of control

COc1ccc(NC(=O)Nc2cccc(SC)c2)cc1
inactive: dose: 100.0 mg/kg/injection, schedule: Q01DX009 (ip), vehicle: carboxymethylcellulose (CMC) 94 % of control and 97 % of control | [15] 93 % of control | dose: 100.0 mg/kg/injection, schedule: Q04DX002 (ip), vehicle: carboxymethylcellulose (CMC) 97 % of control and 101 % of control | dose: 100.0 mg/kg/injection, schedule: Q04DX003 (ip), vehicle: carboxymethylcellulose (CMC) 94 % of control | dose: 200.0 mg/kg/injection, schedule: Q01DX009 (ip), vehicle: carboxymethylcellulose (CMC) 92 % of control and 95 % of control | [16] 93 % of control | dose: 200.0 mg/kg/injection, schedule: Q04DX002 (ip), vehicle: carboxymethylcellulose (CMC) 100 % of control and 91 % of control | dose: 200.0 mg/kg/injection, schedule: Q04DX003 (ip), vehicle: carboxymethylcellulose (CMC) 86 % of control | dose: 400.0 mg/kg/injection, schedule: Q01DX009 (ip), vehicle: carboxymethylcellulose (CMC) 94 % of control | [17] 107 % of control | dose: 400.0 mg/kg/injection, schedule: Q04DX002 (ip), vehicle: carboxymethylcellulose (CMC) 111 % of control and 91 % of control | dose: 400.0 mg/kg/injection, schedule: Q04DX003 (ip), vehicle: carboxymethylcellulose (CMC) 93 % of control

OCCSc1ncnc2nc[nH]c12
inactive: [12] 104 % of control | [13] 98 % of control | [14] 104 % of control

ClCCN1CCC2(CC1)SSC1(CCN(CCCl)CC1)S2
inactive: dose: 10.0 mg/kg/injection, schedule: Q01DX009 (ip), vehicle: saline 107 % of control | dose: 20.0 mg/kg/injection, schedule: Q01DX001 (ip), vehicle: Klucel (hydroxypropylcellulose) (HPC) 108 % of control | dose: 20.0 mg/kg/injection, schedule: Q01DX009 (ip), vehicle: saline 103 % of control | dose: 40.0 mg/kg/injection, schedule: Q01DX001 (ip), vehicle: Klucel (hydroxypropylcellulose) (HPC) 121 % of control

COC(=O)C(c1ccccc1)c1ccccc1
inactive: dose: 100.0 mg/kg/injection, schedule: Q01DX001 (ip), vehicle: Klucel (hydroxypropylcellulose) (HPC) 97 % of control | dose: 200.0 mg/kg/injection, schedule: Q01DX001 (ip), vehicle: Klucel (hydroxypropylcellulose) (HPC) 97 % of control | dose: 400.0 mg/kg/injection, schedule: Q01DX001 (ip), vehicle: Klucel (hydroxypropylcellulose) (HPC) 104 % of control

Cc1cc(C)c2c(c1)C(=O)C(=O)c1cc(C)cc(C)c1-2
inactive: dose: 50.0 mg/kg/injection, schedule: Q04DX002 (ip), vehicle: Klucel (hydroxypropylcellulose) (HPC) 95 % of control | [15] 94 % of control and 92 % of control | [16] 98 % of control | [17] 116 % of control and 88 % of control

ClCc1ccc2c(c1)OCO2
inactive: [4] 104 % of control | [5] 101 % of control | [6] 98 % of control

O=[N+]([O-])Nc1ccnnc1
inactive: dose: 100.0 mg/kg/injection, schedule: Q01DX001 (ip), vehicle: saline 94 % of control | dose: 200.0 mg/kg/injection, schedule: Q01DX001 (ip), vehicle: saline 96 % of control | dose: 400.0 mg/kg/injection, schedule: Q01DX001 (ip), vehicle: saline 96 % of control

Cc1c(Cl)cccc1NC(=O)OC/C=C/c1ccccc1
inactive: dose: 100.0 mg/kg/injection, schedule: Q01DX001 (ip), vehicle: saline with Tween-80 93 % of control | [7] 101 % of control and 105 % of control | [9] 101 % of control and 114 % of control | [12] 91 % of control | dose: 200.0 mg/kg/injection, schedule: Q01DX001 (ip), vehicle: saline with Tween-80 93 % of control | [8] 94 % of control and 101 % of control | [10] 96 % of control and 106 % of control | [13] 93 % of control | dose: 400.0 mg/kg/injection, schedule: Q01DX001 (ip), vehicle: saline with Tween-80 88 % of control | dose: 400.0 mg/kg/injection, schedule: Q01DX009 (ip), vehicle: saline with Tween-80 94 % of control and 101 % of control | [11] 93 % of control and 97 % of control | [14] 98 % of control

[Cl][Pd][Cl].[NH-]C(c1ccccc1)C([NH-])c1ccccc1 (centres undefined)
inactive: [15] 93 % of control and 97 % of control | [16] 90 % of control and 118 % of control | [17] 88 % of control and 97 % of control
